Test results reported in patent US20240199546A1, “INHIBITORS OF SOLUTE CARRIER FAMILY 6A MEMBER 19 (SLC6A19) AND METHODS OF USE THEREOF” (Maze Therapeutics, Inc., priority 2022, published 2024).

Tests used:
human SLC6A19 and TMEM27 [1] = biological target: T1, human SLC6A19 and TMEM27 (Homo sapiens, UniProt Q695T7); test: 13C6,15N-isoleucine uptake in CHO cells with doxycycline-inducible expression of human SLC6A19 and TMEM27, RapidFire mass spectrometry (Example B-2); format: cell-based; conditions: read-out: SLC6A19_RapidFire Uptake Assay IC50
T1 construct: expressed in transfected cells
T1 sequence (Q695T7 1-634): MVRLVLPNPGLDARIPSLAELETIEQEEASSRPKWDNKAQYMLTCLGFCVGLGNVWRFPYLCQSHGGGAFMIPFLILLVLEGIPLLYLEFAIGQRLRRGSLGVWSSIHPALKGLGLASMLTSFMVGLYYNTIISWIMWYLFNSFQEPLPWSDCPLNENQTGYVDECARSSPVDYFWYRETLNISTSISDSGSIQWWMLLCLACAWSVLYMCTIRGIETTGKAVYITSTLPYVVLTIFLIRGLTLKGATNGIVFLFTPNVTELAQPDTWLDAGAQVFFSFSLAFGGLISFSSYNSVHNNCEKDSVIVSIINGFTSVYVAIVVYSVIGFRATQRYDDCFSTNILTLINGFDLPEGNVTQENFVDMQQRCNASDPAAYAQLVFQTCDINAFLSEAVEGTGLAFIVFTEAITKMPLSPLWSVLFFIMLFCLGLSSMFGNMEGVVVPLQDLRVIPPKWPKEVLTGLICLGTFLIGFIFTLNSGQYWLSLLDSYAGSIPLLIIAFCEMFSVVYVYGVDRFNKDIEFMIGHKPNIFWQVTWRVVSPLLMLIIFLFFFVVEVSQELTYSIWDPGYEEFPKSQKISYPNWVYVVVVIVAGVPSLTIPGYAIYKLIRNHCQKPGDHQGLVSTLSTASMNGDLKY
T1 sequence (Q9HBJ8 15-222 partner): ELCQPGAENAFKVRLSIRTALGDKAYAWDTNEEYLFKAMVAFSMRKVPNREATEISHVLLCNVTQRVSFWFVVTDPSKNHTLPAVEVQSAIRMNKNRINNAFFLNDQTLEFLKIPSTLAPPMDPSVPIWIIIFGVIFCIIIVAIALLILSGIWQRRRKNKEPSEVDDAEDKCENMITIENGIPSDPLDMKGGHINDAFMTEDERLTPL
How it was run: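 CHO cells induced overnight with doxycycline to express human SLC6A19 plus TMEM27; 20 min preincubation with compound (10-point 2-fold series, duplicate) at 37 °C in HEPES buffer pH 7.2, then 20 min with 13C6,15N-isoleucine. Intracellular label quantified by RapidFire MS against 13C-leucine standard; positive control defined 100% inhibition.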

human SLC6A19 and TMEM27 [2] = biological target: T1, human SLC6A19 and TMEM27; test: Radiolabelled (3H) leucine uptake in CHO cells with doxycycline-inducible expression of human SLC6A19 and TMEM27 (Example B-1); format: cell-based; conditions: CHO cells with doxycycline-inducible expression of human SLC6A19 and TMEM27, read-out: SLC6A19_Radioligand Uptake Assay IC50
How it was run: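 CHO cells were induced with doxycycline for 18 h at 37 °C, washed in HBSS, then exposed to compounds for 1 h: 8-point, 3-fold dilutions in duplicate, 0.5% DMSO final. Uptake measured by scintillation counting after 2 h shaking. Activity normalized with positive control as 0% and DMSO as 100%.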

O=C(NCc1cc2cc(Cl)c(OCc3cocn3)cc2[nH]1)N1CCC1 [Compound 403, N-((5-chloro-6-(oxazol-4-ylmethoxy)-1H-indol-2-yl)methyl)azetidine-1-carboxamide]
IC50 (human SLC6A19 and TMEM27 [1]): 519 nM
IC50 (human SLC6A19 and TMEM27 [2]): 407 nM

O=C(NCc1cc2cc(C(F)(F)F)c(OCc3cscn3)cc2[nH]1)N1CCC1 [Compound 478, N-((6-(thiazol-4-ylmethoxy)-5-(trifluoromethyl)-1H-indol-2-yl)methyl)azetidine-1-carboxamide]
IC50 (human SLC6A19 and TMEM27 [1]): 172 nM
IC50 (human SLC6A19 and TMEM27 [2]): 416 nM

CC1(C(=O)NCc2cc3cc(Cl)c(OCc4ccc5ccoc5c4)cc3[nH]2)CC1 [Compound 461, N-((6-(benzofuran-6-ylmethoxy)-5-chloro-1H-indol-2-yl)methyl)-1-methylcyclopropane-1-carboxamide]
IC50 (human SLC6A19 and TMEM27 [1]): 989 nM
IC50 (human SLC6A19 and TMEM27 [2]): 2700 nM

CC(=O)NCc1cc2cc(C)c(OCc3cscn3)cc2[nH]1 [Compound 234, N-((5-methyl-6-(thiazol-4-ylmethoxy)-1H-indol-2-yl)methyl)acetamide]
IC50 (human SLC6A19 and TMEM27 [1]): 455 nM
IC50 (human SLC6A19 and TMEM27 [2]): 360 nM

CC(=O)NCc1cc2cc(F)c(NCc3ccon3)cc2[nH]1 [Compound 228, N-((5-fluoro-6-((isoxazol-3-ylmethyl)amino)-1H-indol-2-yl)methyl)acetamide]
IC50 (human SLC6A19 and TMEM27 [1]): 11200 nM
IC50 (human SLC6A19 and TMEM27 [2]): 3170 nM

O=C(NCc1cc2cc(F)c(NCc3ccon3)cc2[nH]1)N1CCC1 [Compound 470, N-((5-fluoro-6-((isoxazol-3-ylmethyl)amino)-1H-indol-2-yl)methyl)azetidine-1-carboxamide]
IC50 (human SLC6A19 and TMEM27 [1]): 1820 nM
IC50 (human SLC6A19 and TMEM27 [2]): 1310 nM

O=C(NCc1cc2cc(Cl)c(OCc3ccon3)cc2[nH]1)C1CC1 [Compound 131, N-((5-chloro-6-(isoxazol-3-ylmethoxy)-1H-indol-2-yl)methyl)cyclopropanecarboxamide]
IC50 (human SLC6A19 and TMEM27 [1]): 50 nM
IC50 (human SLC6A19 and TMEM27 [2]): 74 nM

CC1(C(=O)NCc2cc3cc(Cl)c(OCc4ncc(Cl)s4)cc3[nH]2)CC1 [Compound 323, N-((5-chloro-6-((5-chlorothiazol-2-yl)methoxy)-1H-indol-2-yl)methyl)-1-methylcyclopropane-1-carboxamide]
IC50 (human SLC6A19 and TMEM27 [1]): 531 nM
IC50 (human SLC6A19 and TMEM27 [2]): 1810 nM

O=C(NCc1cc2cc(F)c(NCc3ccon3)cc2[nH]1)N1CCCC1 [Compound 471, N-((5-fluoro-6-((isoxazol-3-ylmethyl)amino)-1H-indol-2-yl)methyl)pyrrolidine-1-carboxamide]
IC50 (human SLC6A19 and TMEM27 [1]): 1090 nM
IC50 (human SLC6A19 and TMEM27 [2]): 599 nM

CC1(C(=O)NCc2cc3ccc(NCc4ccon4)cc3[nH]2)CC1 [Compound 152, N-((6-((isoxazol-3-ylmethyl)amino)-1H-indol-2-yl)methyl)-1-methylcyclopropane-1-carboxamide]
IC50 (human SLC6A19 and TMEM27 [1]): 2060 nM
IC50 (human SLC6A19 and TMEM27 [2]): 531 nM

CNC(=O)NCc1cc2cc(F)c(OCc3cscn3)cc2[nH]1 [Compound 214, 1-((5-fluoro-6-(thiazol-4-ylmethoxy)-1H-indol-2-yl)methyl)-3-methylurea]
IC50 (human SLC6A19 and TMEM27 [1]): 193 nM
IC50 (human SLC6A19 and TMEM27 [2]): 152 nM

CC1(C(=O)NCc2cc3ccc(OCCc4cscn4)cc3[nH]2)CC1 [Compound 191, 1-methyl-N-((6-(2-(thiazol-4-yl)ethoxy)-1H-indol-2-yl)methyl)cyclopropane-1-carboxamide]
IC50 (human SLC6A19 and TMEM27 [1]): 1220 nM
IC50 (human SLC6A19 and TMEM27 [2]): 1680 nM

Cc1cc(COc2cc3[nH]c(CNC(=O)C4CC4)cc3cc2Cl)no1 [Compound 133, N-((5-chloro-6-((5-methylisoxazol-3-yl)methoxy)-1H-indol-2-yl)methyl)cyclopropanecarboxamide]
IC50 (human SLC6A19 and TMEM27 [1]): 45 nM
IC50 (human SLC6A19 and TMEM27 [2]): 82 nM

CC(=O)NCc1cc2cc(Cl)c(NCc3ccon3)cc2[nH]1 [Compound 227, N-((5-chloro-6-((isoxazol-3-ylmethyl)amino)-1H-indol-2-yl)methyl)acetamide]
IC50 (human SLC6A19 and TMEM27 [1]): 486 nM
IC50 (human SLC6A19 and TMEM27 [2]): 317 nM

CC1(C(=O)NCc2cc3cc(Cl)c(OCc4cc(C5CC5)on4)cc3[nH]2)CC1 [Compound 100, N-((5-chloro-6-((5-cyclopropylisoxazol-3-yl)methoxy)-1H-indol-2-yl)methyl)-1-methylcyclopropane-1-carboxamide]
IC50 (human SLC6A19 and TMEM27 [1]): 397 nM
IC50 (human SLC6A19 and TMEM27 [2]): 201 nM

CC(=O)NCc1cc2cc(F)c(OCc3cnn(C)n3)cc2[nH]1 [Compound 222, N-((5-fluoro-6-((2-methyl-2H-1,2,3-triazol-4-yl)methoxy)-1H-indol-2-yl)methyl)acetamide]
IC50 (human SLC6A19 and TMEM27 [1]): 6610 nM
IC50 (human SLC6A19 and TMEM27 [2]): 3170 nM

Cc1nc(COc2cc3[nH]c(CNC(=O)N4CCCC4)cc3cc2Cl)co1 [Compound 411, N-((5-chloro-6-((2-methyloxazol-4-yl)methoxy)-1H-indol-2-yl)methyl)pyrrolidine-1-carboxamide]
IC50 (human SLC6A19 and TMEM27 [1]): 217 nM
IC50 (human SLC6A19 and TMEM27 [2]): 313 nM

CC1(C(=O)NCc2cc3cc(Cl)c(OCc4ccsc4)cc3[nH]2)CC1 [Compound 25, N-((5-chloro-6-(thiophen-3-ylmethoxy)-1H-indol-2-yl)methyl)-1-methylcyclopropane-1-carboxamide]
IC50 (human SLC6A19 and TMEM27 [1]): 33 nM
IC50 (human SLC6A19 and TMEM27 [2]): 124 nM

Cc1cncc(COc2cc3[nH]c(CNC(=O)C4(C)CC4)cc3cc2Cl)c1 [Compound 23, N-((5-chloro-6-((5-methylpyridin-3-yl)methoxy)-1H-indol-2-yl)methyl)-1-methylcyclopropane-1-carboxamide]
IC50 (human SLC6A19 and TMEM27 [1]): 502 nM
IC50 (human SLC6A19 and TMEM27 [2]): 1430 nM

CC1(C(=O)NCc2cc3cc(Cl)c(OCc4cc5ccccn5n4)cc3[nH]2)CC1 [Compound 392, N-((5-chloro-6-(pyrazolo[1,5-a]pyridin-2-ylmethoxy)-1H-indol-2-yl)methyl)-1-methylcyclopropane-1-carboxamide]
IC50 (human SLC6A19 and TMEM27 [1]): 1620 nM
IC50 (human SLC6A19 and TMEM27 [2]): 2830 nM

CC1(C(=O)NCc2cc3cc(Cl)c(OCCc4cscn4)cc3[nH]2)CC1 [Compound 67, N-((5-chloro-6-(2-(thiazol-4-yl)ethoxy)-1H-indol-2-yl)methyl)-1-methylcyclopropane-1-carboxamide]
IC50 (human SLC6A19 and TMEM27 [1]): 117 nM
IC50 (human SLC6A19 and TMEM27 [2]): 169 nM

CCC(=O)NCc1cc2cc(Cl)c(OCc3ccon3)cc2[nH]1 [Compound 129, N-((5-chloro-6-(isoxazol-3-ylmethoxy)-1H-indol-2-yl)methyl)propionamide]
IC50 (human SLC6A19 and TMEM27 [1]): 44 nM
IC50 (human SLC6A19 and TMEM27 [2]): 80 nM

CC(=O)NCc1cc2cc(F)c(OCc3cc(C)on3)cc2[nH]1 [Compound 205, N-((5-fluoro-6-((5-methylisoxazol-3-yl)methoxy)-1H-indol-2-yl)methyl)acetamide]
IC50 (human SLC6A19 and TMEM27 [1]): 714 nM
IC50 (human SLC6A19 and TMEM27 [2]): 787 nM

CCC(=O)NCc1cc2cc(Cl)c(OCc3cscn3)cc2[nH]1 [Compound 146, N-((5-chloro-6-(thiazol-4-ylmethoxy)-1H-indol-2-yl)methyl)propionamide]
IC50 (human SLC6A19 and TMEM27 [1]): 36 nM
IC50 (human SLC6A19 and TMEM27 [2]): 60 nM

Cc1cc2cc(CNC(=O)N3CCCC3)[nH]c2cc1OCc1ccon1 [Compound 533, N-((6-(isoxazol-3-ylmethoxy)-5-methyl-1H-indol-2-yl)methyl)pyrrolidine-1-carboxamide]
IC50 (human SLC6A19 and TMEM27 [1]): 330 nM
IC50 (human SLC6A19 and TMEM27 [2]): 332 nM

CC1CN(C(=O)NCc2cc3cc(F)c(OCc4cscn4)cc3[nH]2)C1 [Compound 357, N-((5-fluoro-6-(thiazol-4-ylmethoxy)-1H-indol-2-yl)methyl)-3-methylazetidine-1-carboxamide]
IC50 (human SLC6A19 and TMEM27 [1]): 434 nM
IC50 (human SLC6A19 and TMEM27 [2]): 413 nM

CC1(C(=O)NCc2cc3cc(Cl)c(OCc4ncccc4F)cc3[nH]2)CC1 [Compound 26, N-((5-chloro-6-((3-fluoropyridin-2-yl)methoxy)-1H-indol-2-yl)methyl)-1-methylcyclopropane-1-carboxamide]
IC50 (human SLC6A19 and TMEM27 [1]): 166 nM
IC50 (human SLC6A19 and TMEM27 [2]): 149 nM

CC(=O)NCc1cc2cc(Cl)c(OCc3cc(C)no3)cc2[nH]1 [Compound 218, N-((5-chloro-6-((3-methylisoxazol-5-yl)methoxy)-1H-indol-2-yl)methyl)acetamide]
IC50 (human SLC6A19 and TMEM27 [1]): 27.5 nM
IC50 (human SLC6A19 and TMEM27 [2]): 69.4 nM

CC1(C(=O)NCc2cc3ccc(OCc4cc(C(F)F)on4)cc3[nH]2)CC1 [Compound 97, N-((6-((5-(difluoromethyl)isoxazol-3-yl)methoxy)-1H-indol-2-yl)methyl)-1-methylcyclopropane-1-carboxamide]
IC50 (human SLC6A19 and TMEM27 [1]): 909 nM
IC50 (human SLC6A19 and TMEM27 [2]): 421 nM

CC(C)C(=O)NCc1cc2cc(Cl)c(OCc3cocn3)cc2[nH]1 [Compound 500, N-((5-chloro-6-(oxazol-4-ylmethoxy)-1H-indol-2-yl)methyl)isobutyramide]
IC50 (human SLC6A19 and TMEM27 [1]): 257 nM
IC50 (human SLC6A19 and TMEM27 [2]): 195 nM
